ChEMBL document CHEMBL5705893, “Targeting the mitotic checkpoint for cancer therapy with NMS-P715, an inhibitor of MPS1 kinase” (Cancer Res, 2010)
The source made the active and inactive calls. The rule behind the calls is not given here.

Assays:
NCI-H1975 = assay: Antiproliferative activity against human NCI-H1975 cells assessed as inhibition of cell growth incubated for 72 hrs by celltiter-glo assay; format: functional, cell-based; conditions: NCI-H1975, 72 h
SK-MEL-2 = assay: Antiproliferative activity against human SK-MEL-2 cells assessed as inhibition of cell growth incubated for 72 hrs by celltiter-glo assay; format: functional, cell-based; conditions: SK-MEL-2, 72 h
[1] = target: Serine/threonine-protein kinase Chk1 (Homo sapiens, UniProt O14757); assay: Inhibition of recombinant CHK1 (unknown origin)
Serine/threonine-protein kinase Chk1, sequence (O14757 whole entry): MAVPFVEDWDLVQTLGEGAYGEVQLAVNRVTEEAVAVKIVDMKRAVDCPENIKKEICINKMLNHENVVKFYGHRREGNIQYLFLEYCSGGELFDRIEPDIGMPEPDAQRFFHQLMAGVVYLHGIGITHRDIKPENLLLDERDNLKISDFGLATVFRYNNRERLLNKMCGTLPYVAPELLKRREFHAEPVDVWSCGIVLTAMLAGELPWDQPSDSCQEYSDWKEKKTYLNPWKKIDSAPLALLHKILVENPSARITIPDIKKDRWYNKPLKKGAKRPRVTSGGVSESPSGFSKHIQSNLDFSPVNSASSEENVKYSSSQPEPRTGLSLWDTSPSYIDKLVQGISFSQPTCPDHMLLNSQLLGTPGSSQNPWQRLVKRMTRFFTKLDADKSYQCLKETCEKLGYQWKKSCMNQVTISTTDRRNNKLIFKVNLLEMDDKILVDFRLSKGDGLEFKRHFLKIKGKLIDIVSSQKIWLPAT

HeLa [2] = assay: Induction of mitotic arrest in human nocodazole-arrested HeLa cells assessed as delocalization of BUB3 at 1 micromol/L in presence of MG132; format: functional, cell-based; conditions: dose 1.0 µmol/L
[3] = Half life in Athymic nu-nu mouse at 10 mg/kg, iv measured upto 24 hrs by LC-MS/MS analysis; format: ADME, organism-based; conditions: in vivo
[4] = target: Tyrosine-protein kinase JAK1 (Homo sapiens, UniProt P23458); assay: Inhibition of recombinant JAK1 (unknown origin)
Tyrosine-protein kinase JAK1, sequence (P23458 whole entry): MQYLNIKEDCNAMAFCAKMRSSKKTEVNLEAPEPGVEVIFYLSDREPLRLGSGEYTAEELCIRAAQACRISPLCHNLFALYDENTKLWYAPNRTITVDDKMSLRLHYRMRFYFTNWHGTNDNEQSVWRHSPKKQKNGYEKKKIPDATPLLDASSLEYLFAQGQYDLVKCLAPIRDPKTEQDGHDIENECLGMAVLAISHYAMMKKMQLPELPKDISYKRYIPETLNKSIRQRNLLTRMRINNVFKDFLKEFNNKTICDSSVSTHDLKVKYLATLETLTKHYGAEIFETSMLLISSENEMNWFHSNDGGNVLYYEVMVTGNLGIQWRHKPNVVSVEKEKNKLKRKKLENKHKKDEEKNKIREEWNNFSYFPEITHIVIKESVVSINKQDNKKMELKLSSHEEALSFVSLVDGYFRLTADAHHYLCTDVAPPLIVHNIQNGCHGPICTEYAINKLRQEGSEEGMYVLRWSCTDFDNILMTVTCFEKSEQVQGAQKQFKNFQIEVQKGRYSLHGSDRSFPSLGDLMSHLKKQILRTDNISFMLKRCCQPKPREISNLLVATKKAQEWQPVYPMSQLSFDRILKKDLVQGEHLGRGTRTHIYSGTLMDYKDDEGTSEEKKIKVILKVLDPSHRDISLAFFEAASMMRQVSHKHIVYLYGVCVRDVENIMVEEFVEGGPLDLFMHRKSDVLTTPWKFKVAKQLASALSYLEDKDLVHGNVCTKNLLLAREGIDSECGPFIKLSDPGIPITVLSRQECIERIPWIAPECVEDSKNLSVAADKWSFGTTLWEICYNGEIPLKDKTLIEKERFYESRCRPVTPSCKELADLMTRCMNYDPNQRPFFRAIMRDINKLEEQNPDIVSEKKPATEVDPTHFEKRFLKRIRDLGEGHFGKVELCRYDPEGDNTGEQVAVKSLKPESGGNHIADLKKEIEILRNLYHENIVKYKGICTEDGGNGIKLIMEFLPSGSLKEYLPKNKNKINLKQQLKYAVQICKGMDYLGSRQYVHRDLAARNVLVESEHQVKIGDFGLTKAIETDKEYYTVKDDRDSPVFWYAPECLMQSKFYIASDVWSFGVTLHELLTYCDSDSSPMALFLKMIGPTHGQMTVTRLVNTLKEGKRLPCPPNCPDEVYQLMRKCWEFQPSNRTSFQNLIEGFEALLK

SNB-75 = assay: Antiproliferative activity against human SNB-75 cells assessed as inhibition of cell growth incubated for 72 hrs by celltiter-glo assay; format: functional, cell-based; conditions: SNB-75, 72 h
[5] = target: Serine/threonine-protein kinase PLK2 (Homo sapiens, UniProt Q9NYY3); assay: Inhibition of recombinant PLK2 (unknown origin)
Serine/threonine-protein kinase PLK2, sequence (Q9NYY3 whole entry): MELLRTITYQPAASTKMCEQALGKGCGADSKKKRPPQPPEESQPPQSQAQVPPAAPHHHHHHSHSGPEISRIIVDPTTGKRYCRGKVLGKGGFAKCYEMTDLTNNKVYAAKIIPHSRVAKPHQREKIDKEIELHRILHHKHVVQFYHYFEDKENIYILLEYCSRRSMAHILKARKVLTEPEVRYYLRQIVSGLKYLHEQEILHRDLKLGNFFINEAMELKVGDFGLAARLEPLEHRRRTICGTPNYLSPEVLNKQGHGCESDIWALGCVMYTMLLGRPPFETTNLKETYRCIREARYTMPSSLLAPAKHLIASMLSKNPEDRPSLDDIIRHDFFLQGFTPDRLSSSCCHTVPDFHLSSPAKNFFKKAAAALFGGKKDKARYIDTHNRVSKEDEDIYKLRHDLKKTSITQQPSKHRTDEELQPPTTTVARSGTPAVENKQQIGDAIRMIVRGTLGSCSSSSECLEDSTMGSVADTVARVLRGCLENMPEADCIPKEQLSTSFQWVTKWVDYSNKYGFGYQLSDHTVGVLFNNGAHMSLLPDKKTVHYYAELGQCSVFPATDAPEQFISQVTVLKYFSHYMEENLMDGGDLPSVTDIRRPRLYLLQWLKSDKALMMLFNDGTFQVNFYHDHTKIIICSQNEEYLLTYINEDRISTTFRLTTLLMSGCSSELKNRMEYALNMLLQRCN

U2OS [6] = assay: Antiproliferative activity against human U2OS cells assessed as inhibition of cell growth incubated for 72 hrs by celltiter-glo assay; format: functional, cell-based
[7] = target: Serine/threonine-protein kinase NIM1 (Homo sapiens, UniProt Q8IY84); assay: Inhibition of recombinant NIM1 (unknown origin)
Serine/threonine-protein kinase NIM1, sequence (Q8IY84 whole entry): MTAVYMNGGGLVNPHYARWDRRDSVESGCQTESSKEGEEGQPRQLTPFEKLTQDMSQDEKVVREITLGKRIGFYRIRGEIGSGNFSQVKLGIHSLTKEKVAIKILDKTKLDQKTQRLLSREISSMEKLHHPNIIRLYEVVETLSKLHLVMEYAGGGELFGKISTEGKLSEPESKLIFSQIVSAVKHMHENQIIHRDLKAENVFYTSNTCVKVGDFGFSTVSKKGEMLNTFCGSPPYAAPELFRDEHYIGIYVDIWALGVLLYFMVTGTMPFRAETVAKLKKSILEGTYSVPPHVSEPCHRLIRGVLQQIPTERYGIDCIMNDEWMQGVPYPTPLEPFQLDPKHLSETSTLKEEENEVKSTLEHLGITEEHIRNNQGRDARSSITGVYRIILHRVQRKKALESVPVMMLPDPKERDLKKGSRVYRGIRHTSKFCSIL

[8] = Antiproliferative activity against human GM14788 cells assessed as inhibition of cell growth incubated for 72 hrs by celltiter-glo assay; format: functional, cell-based; conditions: GM14788, 72 h
HCT-116 [9] = assay: Growth inhibition of human HCT-116 cells at 1 micromol/L incubated for 24 hrs; format: functional, cell-based; conditions: dose 1.0 µmol/L
LS180 = assay: Antiproliferative activity against human LS180 cells assessed as inhibition of cell growth incubated for 72 hrs by celltiter-glo assay; format: functional, cell-based; conditions: LS180, 72 h
[10] = target: Tyrosine-protein kinase Lck (Homo sapiens, UniProt P06239); assay: Inhibition of recombinant LCK (unknown origin)
Tyrosine-protein kinase Lck, sequence (P06239 whole entry): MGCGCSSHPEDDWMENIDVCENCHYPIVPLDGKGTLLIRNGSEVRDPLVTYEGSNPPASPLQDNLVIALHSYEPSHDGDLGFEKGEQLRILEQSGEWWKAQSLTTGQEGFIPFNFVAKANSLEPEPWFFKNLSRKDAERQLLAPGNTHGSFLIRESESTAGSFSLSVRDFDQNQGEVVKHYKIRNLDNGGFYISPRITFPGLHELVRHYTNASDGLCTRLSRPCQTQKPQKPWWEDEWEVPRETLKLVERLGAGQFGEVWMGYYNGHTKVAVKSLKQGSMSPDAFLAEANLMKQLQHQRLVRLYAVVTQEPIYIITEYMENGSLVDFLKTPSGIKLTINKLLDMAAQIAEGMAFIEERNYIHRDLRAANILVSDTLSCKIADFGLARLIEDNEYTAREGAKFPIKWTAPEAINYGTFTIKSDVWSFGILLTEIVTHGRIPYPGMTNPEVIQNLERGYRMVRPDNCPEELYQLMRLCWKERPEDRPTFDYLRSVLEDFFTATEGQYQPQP

[11] = target: Serine/threonine-protein kinase Nek6 (Homo sapiens, UniProt Q9HC98); assay: Inhibition of recombinant NEK6 (unknown origin)
Serine/threonine-protein kinase Nek6, sequence (Q9HC98 whole entry): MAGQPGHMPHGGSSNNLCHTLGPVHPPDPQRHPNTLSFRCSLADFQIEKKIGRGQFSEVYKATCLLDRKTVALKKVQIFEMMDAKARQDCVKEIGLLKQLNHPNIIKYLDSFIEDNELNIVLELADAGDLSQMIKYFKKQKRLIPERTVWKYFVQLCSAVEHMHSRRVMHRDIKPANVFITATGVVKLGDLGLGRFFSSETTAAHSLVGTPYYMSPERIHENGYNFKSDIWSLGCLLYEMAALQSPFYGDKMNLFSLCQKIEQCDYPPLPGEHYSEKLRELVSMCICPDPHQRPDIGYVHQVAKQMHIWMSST

HCC78 = assay: Antiproliferative activity against human HCC78 cells assessed as inhibition of cell growth incubated for 72 hrs by celltiter-glo assay; format: functional, cell-based; conditions: HCC78, 72 h
NCI-H2228 = assay: Antiproliferative activity against human NCI-H2228 cells assessed as inhibition of cell growth incubated for 72 hrs by celltiter-glo assay; format: functional, cell-based; conditions: NCI-H2228, 72 h
T84 = assay: Antiproliferative activity against human T84 cells assessed as inhibition of cell growth incubated for 72 hrs by celltiter-glo assay; format: functional, cell-based; conditions: T84, 72 h
HCT-116 [12] = assay: Cell cycle arrest in human HCT-116 cells assessed as accumulation of cells at G2/M phase at 0.2 to 1 micromol/L incubated for 48 hrs by FACS/PI staining based flow cytometric analysis; format: functional; conditions: dose 0.2-1 µmol/L
SW1417 = assay: Antiproliferative activity against human SW1417 cells assessed as inhibition of cell growth incubated for 72 hrs by celltiter-glo assay; format: functional, cell-based; conditions: SW1417, 72 h
NCI-H23 = assay: Antiproliferative activity against human NCI-H23 cells assessed as inhibition of cell growth incubated for 72 hrs by celltiter-glo assay; format: functional, cell-based; conditions: NCI-H23, 72 h
A2780 [13] = assay: Antitumor activity against human A2780 cells xenografted in Athymic nu-nu nude mouse assessed as reduction in histone H3 phosphorylation at 100 mg/kg, po administered for 2 days and measured after 6 hrs by Western blot analysis; format: functional, organism-based; conditions: time 54.0 hrs
Calu-3 = assay: Antiproliferative activity against human Calu-3 cells assessed as inhibition of cell growth incubated for 72 hrs by celltiter-glo assay; format: functional, cell-based; conditions: Calu-3, 72 h
NCI-H322M = assay: Antiproliferative activity against human NCI-H322M cells assessed as inhibition of cell growth incubated for 72 hrs by celltiter-glo assay; format: functional, cell-based
OVCAR-3 = assay: Antiproliferative activity against human OVCAR-3 cells assessed as inhibition of cell growth incubated for 72 hrs by celltiter-glo assay; format: functional, cell-based; conditions: OVCAR-3, 72 h
A2780 [14] = assay: Induction of apoptosis in human A2780 cells assessed as PARP clevage at 0.2 to 1 micromol/L incubated for 2 to 72 hrs by Western blot analysis; format: functional, cell-based; conditions: dose 0.2-1 µmol/L, time 2-72 hrs
Focal adhesion kinase 1 = Focal adhesion kinase 1 (Homo sapiens, UniProt Q05397); assay: Inhibition of recombinant FAK (unknown origin)
Focal adhesion kinase 1, sequence (Q05397 whole entry): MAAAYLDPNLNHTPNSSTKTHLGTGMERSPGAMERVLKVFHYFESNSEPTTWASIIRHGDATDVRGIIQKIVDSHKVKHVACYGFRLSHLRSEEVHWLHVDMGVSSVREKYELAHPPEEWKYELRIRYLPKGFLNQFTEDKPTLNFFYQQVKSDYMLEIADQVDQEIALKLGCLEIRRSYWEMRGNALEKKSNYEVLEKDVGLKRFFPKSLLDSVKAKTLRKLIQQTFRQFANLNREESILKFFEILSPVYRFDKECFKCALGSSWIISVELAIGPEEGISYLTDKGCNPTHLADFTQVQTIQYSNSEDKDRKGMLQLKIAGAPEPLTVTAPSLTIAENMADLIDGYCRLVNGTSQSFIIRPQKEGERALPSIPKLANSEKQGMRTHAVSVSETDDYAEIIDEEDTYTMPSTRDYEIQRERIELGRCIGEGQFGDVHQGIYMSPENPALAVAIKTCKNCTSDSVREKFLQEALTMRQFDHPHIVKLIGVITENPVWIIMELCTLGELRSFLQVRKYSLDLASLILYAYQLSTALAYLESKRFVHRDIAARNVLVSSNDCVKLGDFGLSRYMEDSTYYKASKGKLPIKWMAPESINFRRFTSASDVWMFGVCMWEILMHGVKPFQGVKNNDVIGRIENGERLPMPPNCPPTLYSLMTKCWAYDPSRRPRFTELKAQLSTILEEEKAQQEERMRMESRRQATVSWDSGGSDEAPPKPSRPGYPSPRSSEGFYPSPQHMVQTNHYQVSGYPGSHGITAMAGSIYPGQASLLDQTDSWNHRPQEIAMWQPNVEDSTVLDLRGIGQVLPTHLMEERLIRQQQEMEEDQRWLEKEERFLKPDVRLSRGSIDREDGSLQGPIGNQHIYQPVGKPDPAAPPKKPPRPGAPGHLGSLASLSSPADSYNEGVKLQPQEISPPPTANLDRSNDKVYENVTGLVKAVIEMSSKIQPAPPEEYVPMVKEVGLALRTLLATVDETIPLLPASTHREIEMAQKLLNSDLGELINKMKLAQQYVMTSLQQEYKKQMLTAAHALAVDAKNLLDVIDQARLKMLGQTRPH

MCF7 = assay: Antiproliferative activity against human MCF7 cells assessed as inhibition of cell growth incubated for 72 hrs by celltiter-glo assay; format: functional, cell-based; conditions: MCF7, 72 h
HeLa [15] = assay: Induction of mitotic arrest in human nocodazole-arrested HeLa cells assessed as delocalization of MAD2 at 1 micromol/L in presence of MG132; format: functional, cell-based; conditions: dose 1.0 µmol/L
HeLa [16] = assay: Induction of mitotic arrest in human nocodazole-arrested HeLa cells assessed as delocalization of BUB1 at 1 micromol/L in presence of MG132; format: functional, cell-based; conditions: dose 1.0 µmol/L
786-0 = assay: Antiproliferative activity against human 786-0 cells assessed as inhibition of cell growth incubated for 72 hrs by celltiter-glo assay; format: functional, cell-based; conditions: 786-0, 72 h
U2OS [17] = assay: Inhibition of colony formation in human U2OS cells assessed as decrease in colony number incubated for 22 hrs followed by compound washout and measured after 8 days by crystal violet staining based assay; format: functional, cell-based
NCI-H82 = assay: Antiproliferative activity against human NCI-H82 cells assessed as inhibition of cell growth incubated for 72 hrs by celltiter-glo assay; format: functional, cell-based; conditions: NCI-H82, 72 h
SU-DHL-8 = assay: Antiproliferative activity against human SU-DHL-8 cells assessed as inhibition of cell growth incubated for 72 hrs by celltiter-glo assay; format: functional, cell-based; conditions: SU-DHL-8, 72 h
KG-1 = assay: Antiproliferative activity against human KG-1 cells assessed as inhibition of cell growth incubated for 72 hrs by celltiter-glo assay; format: functional, cell-based; conditions: KG-1, 72 h
[18] = Oral bioavailability in Athymic nu-nu mouse at 10 mg/kg measured upto 24 hrs by LC-MS/MS analysis; format: ADME, organism-based; conditions: in vivo
SUD4 = assay: Antiproliferative activity against human SU-DHL-4 cells assessed as inhibition of cell growth incubated for 72 hrs by celltiter-glo assay; format: functional, cell-based; conditions: SU-DHL-4, 72 h
LP-1 = assay: Antiproliferative activity against human LP-1 cells assessed as inhibition of cell growth incubated for 72 hrs by celltiter-glo assay; format: functional, cell-based; conditions: LP-1, 72 h
U2OS [19] = assay: Induction of mitotic arrest in human U2OS cells expressing YFP alpha-tubulin assessed as chromosome misalignment in metaphase incubated for 1 hr by DAPI staining based confocal microscopic analysis; format: functional, cell-based
SK-MEL-28 = assay: Antiproliferative activity against human SK-MEL-28 cells assessed as inhibition of cell growth incubated for 72 hrs by celltiter-glo assay; format: functional, cell-based; conditions: SK-MEL-28, 72 h
SKM-1 = assay: Antiproliferative activity against human SKM-1 cells assessed as inhibition of cell growth incubated for 72 hrs by celltiter-glo assay; format: functional, cell-based; conditions: SKM-1, 72 h

For `CCc1cccc(CC)c1NC(=O)c1nn(C)c2c1CCc1cnc(Nc3ccc(C(=O)NC4CCN(C)CC4)cc3OC(F)(F)F)nc1-2`, which IC50 (NCI-H1975) is on record?
Its IC50 is 10000 nM.

What about the IC50 (SK-MEL-2) of the same compound?
The IC50 was 1490 nM.

And the IC50 [1]?
The IC50 was greater than 10000 nM.

What about the Activity (HeLa [2]) of the same compound?
The Activity was “Active”.

And the half-life [3]?
Its half-life is 7.65 h.

What about the IC50 [4] of the same compound?
The IC50 was greater than 10000 nM.

What about the IC50 (SNB-75) of the same compound?
Its IC50 is 2200 nM.

And the IC50 [5]?
Its IC50 is greater than 10000 nM.

And the IC50 (U2OS [6])?
The IC50 was 2090 nM.

What about the IC50 [7] of the same compound?
Its IC50 is greater than 10000 nM.

And the IC50 [8]?
The IC50 was 10000 nM.

And the “growth inhibition (GI)” value (HCT-116 [9])?
Its value is “Active”.

And the IC50 (LS180)?
The IC50 was 2170 nM.

What about the IC50 [10] of the same compound?
Its IC50 is greater than 10000 nM.

And the IC50 [11]?
Its IC50 is 6020 nM.

What about the IC50 (HCC78) of the same compound?
Its IC50 is 10000 nM.

And the IC50 (NCI-H2228)?
The IC50 was 5810 nM.

What about the IC50 (T84) of the same compound?
Its IC50 is 10000 nM.

And the Activity (HCT-116 [12])?
Its Activity is “Active”.

What about the IC50 (SW1417) of the same compound?
Its IC50 is 8840 nM.

What about the IC50 (NCI-H23) of the same compound?
Its IC50 is 1220 nM.

And the Activity (A2780 [13])?
The Activity was “Active”.

And the IC50 (Calu-3)?
Its IC50 is 1440 nM.

What about the IC50 (NCI-H322M) of the same compound?
The IC50 was 1560 nM.

What about the IC50 (OVCAR-3) of the same compound?
Its IC50 is 6200 nM.

And the Activity (A2780 [14])?
The Activity was “Active”.

What about the IC50 (Focal adhesion kinase 1) of the same compound?
The IC50 was greater than 10000 nM.

And the IC50 (MCF7)?
The IC50 was 1860 nM.

What about the Activity (HeLa [15]) of the same compound?
The Activity was “Active”.

And the Activity (HeLa [16])?
Its Activity is “Active”.

And the IC50 (786-0)?
Its IC50 is 917 nM.

And the Activity (U2OS [17])?
Its Activity is “Active”.

And the IC50 (NCI-H82)?
Its IC50 is 2590 nM.

What about the IC50 (SU-DHL-8) of the same compound?
Its IC50 is 829 nM.

What about the IC50 (KG-1) of the same compound?
The IC50 was 2960 nM.

What about the bioavailability [18] of the same compound?
The bioavailability was 37.9%.

What about the IC50 (SUD4) of the same compound?
Its IC50 is 1600 nM.

What about the IC50 (LP-1) of the same compound?
Its IC50 is 3480 nM.

And the Activity (U2OS [19])?
Its Activity is “Active”.

What about the IC50 (SK-MEL-28) of the same compound?
The IC50 was 2590 nM.

What about the IC50 (SKM-1) of the same compound?
The IC50 was 10000 nM.
